Experimental data published in the supplement of paper PMC8612539.

Test system: Mannheimia haemolytica
Test: minimum inhibitory concentration (MIC)
Experimental: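 Broth microdilution MIC (Sensititre BOPO7F bovine plate, CLSI methods) of 19 antimicrobials against field isolates of P. multocida, M. haemolytica, H. somni (deep nasopharyngeal swabs) and E. coli, Enterococcus spp. (rectal swabs) from weaned dairy heifers. Incubation 16-24 h at 35 C. MIC is the lowest concentration preventing visible growth. Values with <= or > lie at the tested range limits. Trimethoprim-sulfamethoxazole is given as the trimethoprim component of a 1:19 mixture.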

COc1cc(NS(=O)(=O)c2ccc(N)cc2)nc(OC)n1 [sulfadimethoxine]
Settings	minimum inhibitory concentration [µg/mL]
isolate (source animal id): 8	> 256
isolate (source animal id): 13	> 256
isolate (source animal id): 18	> 256
isolate (source animal id): 21	> 256
isolate (source animal id): 25	> 256
isolate (source animal id): 27	> 256
isolate (source animal id): 28	≤ 256
isolate (source animal id): 30	> 256
isolate (source animal id): 31	≤ 256
isolate (source animal id): 32	> 256
isolate (source animal id): 34	> 256
isolate (source animal id): 36	> 256
isolate (source animal id): 37	> 256
isolate (source animal id): 40	> 256
isolate (source animal id): 41	> 256
isolate (source animal id): 43	> 256
isolate (source animal id): 46	> 256
isolate (source animal id): 49	> 256
isolate (source animal id): 50	> 256
isolate (source animal id): 51	> 256
isolate (source animal id): 52	> 256
isolate (source animal id): 53	> 256
isolate (source animal id): 55	> 256
isolate (source animal id): 56	> 256
isolate (source animal id): 57	> 256
isolate (source animal id): 100	> 256
isolate (source animal id): 103	> 256
isolate (source animal id): 107	> 256
isolate (source animal id): 108	> 256
isolate (source animal id): 112	> 256
isolate (source animal id): 113	> 256
isolate (source animal id): 121	> 256
isolate (source animal id): 122	> 256
isolate (source animal id): 123	> 256
isolate (source animal id): 126	> 256
isolate (source animal id): 133	> 256
isolate (source animal id): 135	> 256
isolate (source animal id): 138	> 256
isolate (source animal id): 141	> 256
isolate (source animal id): 142	> 256
isolate (source animal id): 145	> 256
isolate (source animal id): 149	≤ 256
isolate (source animal id): 151	≤ 256
isolate (source animal id): 152	≤ 256
isolate (source animal id): 154	≤ 256
isolate (source animal id): 159	> 256
isolate (source animal id): 162	> 256
isolate (source animal id): 170	> 256
isolate (source animal id): 171	> 256
isolate (source animal id): 172	> 256
isolate (source animal id): 173	> 256
isolate (source animal id): 179	> 256
isolate (source animal id): 180	> 256
isolate (source animal id): 183	> 256
isolate (source animal id): 186	> 256
isolate (source animal id): 187	> 256
isolate (source animal id): 188	> 256
isolate (source animal id): 190	> 256
isolate (source animal id): 191	> 256
isolate (source animal id): 192	> 256
isolate (source animal id): 201	> 256
isolate (source animal id): 202	> 256
isolate (source animal id): 209	> 256
isolate (source animal id): 211	≤ 256
isolate (source animal id): 220	> 256
isolate (source animal id): 221	> 256
isolate (source animal id): 223	> 256
isolate (source animal id): 233	> 256
isolate (source animal id): 237	≤ 256
isolate (source animal id): 241	> 256
isolate (source animal id): 252	> 256
isolate (source animal id): 253	> 256
isolate (source animal id): 259	> 256
isolate (source animal id): 260	> 256
isolate (source animal id): 262	> 256
isolate (source animal id): 282	> 256
isolate (source animal id): 287	> 256
isolate (source animal id): 288	> 256
isolate (source animal id): 291	≤ 256
isolate (source animal id): 293	> 256
isolate (source animal id): 298	> 256
isolate (source animal id): 299	> 256
isolate (source animal id): 300	≤ 256
isolate (source animal id): 302	> 256
isolate (source animal id): 304	> 256
isolate (source animal id): 306	> 256
isolate (source animal id): 308	≤ 256
isolate (source animal id): 309	≤ 256
isolate (source animal id): 313	> 256
isolate (source animal id): 318	> 256
isolate (source animal id): 320	≤ 256
isolate (source animal id): 321	> 256
isolate (source animal id): 323	> 256
isolate (source animal id): 324	> 256
isolate (source animal id): 326	> 256
isolate (source animal id): 328	> 256
isolate (source animal id): 329	> 256
isolate (source animal id): 333	> 256
isolate (source animal id): 335	> 256
isolate (source animal id): 338	> 256
